Laboratory results taken from ChEMBL document CHEMBL1130384, “Address and message sequences for the nociceptin receptor: a structure-activity study of nociceptin-(1-13)-peptide amide” (J Med Chem, 1997).
pEC50: −log10 of the molar value. Calls of active or inactive are those of the source. No cut-off for these calls is given here. Residues, ends and D or L forms follow the SMILES beside them.

What was measured:
Mus musculus [1] = organism: Mus musculus; assay: Tested for apparent affinity on electrically stimulated mouse vas deferens; type: functional, organism-based
Mus musculus [2] = organism: Mus musculus; assay: Tested for maximal effect induced by agonist; type: functional
Mus musculus [3] = organism: Mus musculus; assay: Tested for maximal effect induced by agonist at 10 uM; Inactive; type: functional, organism-based
Mus musculus [4] = organism: Mus musculus; assay: Tested for apparent affinity on electrically stimulated mouse vas deferens at 10 uM; Inactive; type: functional, organism-based
Mus musculus [5] = organism: Mus musculus; assay: Tested for antagonistic properties by using NC(1-13)-NH2; In active at 10 uM; type: functional, organism-based
Mus musculus [6] = organism: Mus musculus; assay: Tested for maximal effect induced by agonist at 10 uM; Slight effect was detected; type: functional, organism-based
Mus musculus [7] = organism: Mus musculus; assay: Tested for apparent affinity on electrically stimulated mouse vas deferens at 10 uM; Slight effect was detected; type: functional, organism-based
Mus musculus [8] = organism: Mus musculus; assay: Tested for antagonistic properties by using NC(1-13)-NH2 as agonist; Inactive at 10 uM; type: functional, organism-based
Mus musculus [9] = organism: Mus musculus; assay: Tested for maximal effect induced by agonist at 10 uM; In active; type: functional, organism-based
Mus musculus [10] = organism: Mus musculus; assay: Tested for apparent affinity on electrically stimulated mouse vas deferens at 10 uM; In active; type: functional, organism-based

| Compound | pEC50 (Mus musculus [1]) | Emax (Mus musculus [2]) | Emax (Mus musculus [3]) | Log EC50 (Mus musculus [4]) | Activity (Mus musculus [5]) | other results |
| --- | --- | --- | --- | --- | --- | --- |
| C[C@H](NC(=O)CNC(=O)[C@@H](NC(=O)[C@H](Cc1ccccc1)NC(=O)CNC(=O)CNC(=O)[C@@H](N)Cc1ccccc1)[C@@H](C)O)C(=O)N[C@@H](CCCNC(=N)N)C(=O)N[C@@H](CCCCN)C(=O)N[C@@H](CO)C(=O)N[C@@H](C)C(=O)N[C@@H](CCCNC(=N)N)C(=O)N[C@@H](CCCCN)C(N)=O | 7.75 | -84% | – | – | – | – |
| C[C@H](NC(=O)CNC(=O)[C@@H](NC(=O)[C@H](Cc1ccccc1)NC(=O)CNC(=O)CNC(=O)[C@@H](N)Cc1ccccc1)[C@@H](C)O)C(=O)N[C@@H](CCCN=C(N)N)C(=O)N[C@@H](CCCCN)C(=O)N[C@@H](CO)C(=O)N[C@@H](C)C(=O)N[C@@H](CCCN=C(N)N)C(=O)N[C@@H](CCCCN)C(=O)O | 5.65 | -73% | – | – | – | – |
| CC(=O)N[C@@H](Cc1ccccc1)C(=O)NCC(=O)NCC(=O)N[C@@H](Cc1ccccc1)C(=O)N[C@H](C(=O)NCC(=O)N[C@@H](C)C(=O)N[C@@H](CCCN=C(N)N)C(=O)N[C@@H](CCCCN)C(=O)N[C@@H](CO)C(=O)N[C@@H](C)C(=O)N[C@@H](CCCN=C(N)N)C(=O)N[C@@H](CCCCN)C(N)=O)[C@@H](C)O | 5.82 | -79% | – | – | – | – |
| C=CCN(CC=C)[C@@H](Cc1ccccc1)C(=O)NCC(=O)NCC(=O)N[C@@H](Cc1ccccc1)C(=O)N[C@H](C(=O)NCC(=O)N[C@@H](C)C(=O)N[C@@H](CCCN=C(N)N)C(=O)N[C@@H](CCCCN)C(=O)N[C@@H](CO)C(=O)N[C@@H](C)C(=O)N[C@@H](CCCN=C(N)N)C(=O)N[C@@H](CCCCN)C(N)=O)[C@@H](C)O | – | – | inactive | inactive | inactive | – |
| C[C@H](NC(=O)CNC(=O)[C@@H](NC(=O)[C@@H](Cc1ccccc1)NC(=O)CNC(=O)CNC(=O)[C@@H](N)Cc1ccccc1)[C@@H](C)O)C(=O)N[C@@H](CCCN=C(N)N)C(=O)N[C@@H](CCCCN)C(=O)N[C@@H](CO)C(=O)N[C@@H](C)C(=O)N[C@@H](CCCN=C(N)N)C(=O)N[C@@H](CCCCN)C(N)=O | – | – | – | – | inactive | Emax (Mus musculus [6]): crc incom; Log EC50 (Mus musculus [7]): crc incom |
| C[C@H](NC(=O)CNC(=O)[C@@H](NC(=O)[C@H](Cc1ccccc1)NC(=O)CNC(=O)CNC(=O)[C@@H](N)Cc1ccccc1)[C@@H](C)O)C(=O)N[C@@H](CCCN=C(N)N)C(=O)N[C@@H](CCCCN)C(=O)N[C@@H](CO)C(=O)N[C@@H](C)C(=O)N[C@@H](CCCN=C(N)N)C(=O)O | – | – | inactive | inactive | inactive | – |
| C[C@H](NC(=O)CNC(=O)[C@@H](NC(=O)[C@H](Cc1ccccc1)NC(=O)CNC(=O)CNC(=O)[C@H](N)Cc1ccccc1)[C@@H](C)O)C(=O)N[C@@H](CCCN=C(N)N)C(=O)N[C@@H](CCCCN)C(=O)N[C@@H](CO)C(=O)N[C@@H](C)C(=O)N[C@@H](CCCN=C(N)N)C(=O)N[C@@H](CCCCN)C(N)=O | – | – | – | – | inactive | Emax (Mus musculus [6]): crc incom; Log EC50 (Mus musculus [7]): crc incom |
| NC(=O)[C@H](Cc1ccccc1)NC(=O)CNC(=O)CNC(=O)[C@@H](N)Cc1ccccc1 (H-FGGF-NH2) | – | – | inactive | inactive | – | Activity (Mus musculus [8]): inactive |
| CC(C)C[C@H](NC(=O)[C@H](CCCCN)NC(=O)[C@H](CCCNC(=N)N)NC(=O)[C@H](C)NC(=O)[C@H](CO)NC(=O)[C@H](CCCCN)NC(=O)[C@H](CCCNC(=N)N)NC(=O)[C@H](C)NC(=O)CNC(=O)[C@@H](NC(=O)[C@H](Cc1ccccc1)NC(=O)CNC(=O)CNC(=O)[C@@H](N)Cc1ccccc1)[C@@H](C)O)C(=O)N[C@@H](C)C(=O)N[C@@H](CC(N)=O)C(=O)N[C@@H](CCC(N)=O)C(=O)O [NOCICEPTIN] | 7.84 | -83% | – | – | – | – |
| H-FAAFTGARKSARK-NH2 | – | – | – | inactive | inactive | Emax (Mus musculus [9]): inactive |
| H-FGFTGARKSARK-NH2 | – | – | – | – | inactive | Log EC50 (Mus musculus [10]): inactive; Emax (Mus musculus [9]): inactive |
| H-FGGFT-NH2 | – | – | inactive | inactive | inactive | – |
| H-FGGFTGAAASARK-NH2 | – | – | – | – | inactive | Emax (Mus musculus [6]): crc incom; Log EC50 (Mus musculus [7]): crc incom |
| H-FGGFTGARK-NH2 | – | – | inactive | inactive | inactive | – |
| H-FGGFTGARKSA-NH2 | – | – | – | – | inactive | Emax (Mus musculus [6]): crc incom; Log EC50 (Mus musculus [7]): crc incom |
| H-FGGFTGARKSAR-NH2 | 6.06 | -79% | – | – | – | – |
| H-FGGLTGARKSARK-NH2 | – | – | inactive | inactive | inactive | – |
| H-LGGFTGARKSARK-NH2 | 7.55 | -80% | – | – | – | – |
